Data on 1 molecule can be found in ChEMBL document CHEMBL1147307, “Cytotoxic macrolides from a cultured marine dinoflagellate of the genus Amphidinium” (J Nat Prod, 1989).

Values after ≈ are worked out from the molar mass of the structure shown.

The test system of this assay is L1210. As to the kind of experiment: Cytotoxicity against mouse L1210 cells. The assay is classed as functional, cell-based.

The molecule `C=C1/C=C(\C)C(C)(O)CC(O)CC(=O)C(O)C(O)C(C)CC(C)OC(=O)/C(C)=C/CC/C=C/C(OC)C(O)CC(C)C1` (stereo unspecified) yielded an IC50 of 0.081 µg/mL (≈ 0.136 µM).
